1 molecule from patent US20080171745A1, “METHODS RELATING TO THE TREATMENT OF FIBROSIS” (UNIVERSITY OF WASHINGTON, priority 2005, published 2008) can be followed below.

The subject of one test is S100A4. Put plainly: RT-PCR in bleomycin treated mice. It counts as in vivo. The following applies: 5 mgs/Kg/day s.c.
In another test the test system is IPF patient fibroblasts. Put plainly: IPF patient fibroblasts, Western blots on whole cell lysates. The format is cell-based, human. The protocol:
Western blots for S100A4 (also know as FSP-1 or fibroblast specific protein-1) and E-Cadherin were performed on whole cell lysates.
(In western blotting, separated proteins are transferred to a membrane and probed.)

A further test relates to C57/B16 mice. Put plainly: Bleomycin induced murine pulmonary fibrosis, lung sections stained with trichrome, body weight and survival. The format is in vivo. The following applies: for disease progression, as judged by reduced mortality, histopathology and endogenous gene expression: bleomycin murine model, 5 mg/Kg/day. The protocol: Murine models of bleomycin induced fibrosis have been developed in order to study fibrotic disease progression.
There is an absence of airway epithelium in lower left compared to upper left (see arrow heads) and extensive collagen deposition (lower left). On the sixth day, either saline (upper right) or ICG-001 (5 mgs/Kg/day) was administered for 10 days after which the mice were sacrificed and sectioned. Of interest is the upper right (saline treatment) showing lack of normal airway epithelialization, extensive collagen deposition and intra-airway hypercellularity (fibroblasts and inflammatory influx).

For another test, the system named is collagen 1A2. The test is described as follows: RT-PCR in bleomycin treated mice. The format is in vivo. The following applies: 5 mgs/Kg/day s.c.
The mark [1] stands for this setting: RPMI 1640+10% FBS, 2 days, whole cell lysates.
Where [2] appears, read: bleomycin 5 days, then 5 mgs/Kg/day for 10 days.

For the molecule `O=C1[C@H](Cc2ccc(O)cc2)N2C(=O)CCN(C(=O)NCc3ccccc3)[C@H]2CN1Cc1cccc2ccccc12` [ICG-001], the “S100A4 message (RT-PCR)” value in the test with S100A4 is recorded as “reduced essentially to negative control”. Further, the “S100A4 and E-cadherin expression at the mRNA level” value with IPF patient fibroblasts (IPF patient fibroblasts) is “this is also true at the mRNA level”. Moreover, in the test on IPF patient fibroblasts (setting [1]), the “E-Cadherin expression, Western blot” value is listed as “increased E-Cadherin expression” and the “S100A4 (FSP-1) expression, Western blot” value is “decreased S100A4 expression”. In addition, in the test on C57/B16 mice (setting [2]), the “airway histology (epithelialization)” value was “airway looks essentially normal”, the body weight entry is “regained normal body weight” and the “collagen levels (trichrome stain)” value is “normal collagen levels”. Also, in the test with C57/B16 mice (bleomycin 5 days, then 5 mgs/Kg/day for 10 days, untreated controls did not survive), the survival result is “survived”. Besides, the “disease progression, as judged by reduced mortality, histopathology and endogenous gene expression” value in the test on C57/B16 mice is recorded as “not only halted but reversed disease progression”. In addition, the “disease progression, as judged by reduced mortality, histopathology and endogenous gene expression” value in the test with C57/B16 mice (listed as ICG-011, 5 mg/kg/day) is reported as “not only halts but reverses disease progression”. Moreover, the “collagen 1A2 message (RT-PCR)” value in the test on collagen 1A2 is listed as “reduced essentially to negative control”.
